93 molecules from PubChem BioAssay AID449745 (Broad Institute, 2010) can be followed below.

Results filed as inconclusive are left out. The source made the active and inactive calls. How the calls were made is not given here.

For this experiment, the target named is Zinc finger protein mex-5 (Caenorhabditis elegans) (UniProt Q9XUB2). Description: MEX-5 RNA-binding inhibition confirmation – biochemical, C. elegans, fluorescence polarization, dose retest (AID 449745).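 Further: potency is for blocking Mex-5 binding to labeled TCR2 RNA like unlabeled competitor.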 The settings on record: Mex-5 / TCR-2 RNA binding.
Chain of Zinc finger protein mex-5 (Caenorhabditis elegans) (Q9XUB2 whole entry, looked up): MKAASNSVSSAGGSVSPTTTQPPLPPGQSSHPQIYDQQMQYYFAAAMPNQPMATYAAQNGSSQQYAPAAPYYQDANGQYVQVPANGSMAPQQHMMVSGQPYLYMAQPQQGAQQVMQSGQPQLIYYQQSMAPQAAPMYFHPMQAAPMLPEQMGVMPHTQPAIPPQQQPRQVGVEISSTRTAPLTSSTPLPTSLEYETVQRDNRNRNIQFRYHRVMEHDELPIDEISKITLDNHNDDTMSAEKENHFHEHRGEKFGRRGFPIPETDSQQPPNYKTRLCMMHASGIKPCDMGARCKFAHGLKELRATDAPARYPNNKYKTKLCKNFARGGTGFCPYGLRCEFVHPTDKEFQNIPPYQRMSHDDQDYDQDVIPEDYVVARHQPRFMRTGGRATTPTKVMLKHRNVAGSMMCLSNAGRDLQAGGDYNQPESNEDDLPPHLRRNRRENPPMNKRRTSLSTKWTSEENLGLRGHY

By AC50 is commonly meant the concentration at which the activity in the assay is half-maximal. In the case of `O=C(O)CCCC(=O)NNc1nc(-c2ccccc2)c2cc(Cl)ccc2n1`, the AC50 is 13.3 µM.

On to `C=C1c2cccc(O)c2C(O)=C2C(=O)[C@]3(O)C(O)=C(C(N)=O)C(=O)[C@@H](N(C)C)[C@@H]3[C@@H](O)[C@H]12`, for which the AC50 is 17.7 µM. As for `N#Cc1c(C#N)c(O)c2ccccc2c1O`, the AC50 is 11.3 µM.

Take `COc1cccc(/C(O)=C/c2nc3ccc(C(=O)NCCc4ccc(Cl)cc4)cc3[nH]c2=O)c1`: the AC50 was 23.3 µM. In the case of `O=C(N/N=C/C1C(=O)NC(=S)N(c2ccccc2)C1=O)c1cc(Br)c(O)c(Br)c1` (stereo not drawn) it was 13 µM. In the case of `Cc1cc2ccccc2n1CCNC(=O)c1ccc(Br)o1` it was > 38 µM (inactive). For `Cc1nnc(N2C(=O)C(O)=C(C(=O)c3ccco3)C2c2ccc(C(C)C)cc2)s1` (stereo not drawn) the value was 37.2 µM.

For `Cc1cc(=O)n2[nH]c(=O)c(N=Nc3ccccc3)c2[nH]1`, the AC50 is less than 0.3 µM. For `OC(CNC1CCCC1)COc1ccccc1Br` (stereo not drawn), the AC50 is > 38 µM (inactive). For `CN(C)c1ccc(C(c2nnnn2CCOC(=O)Nc2ccc(Cl)cc2)N2CCOCC2)cc1` (stereo not drawn) the value was > 38 µM (inactive); for `COc1ccc(N2C(=O)NC(=O)/C(=C\c3ccc([N+](=O)[O-])s3)C2=O)cc1`, 18.7 µM. For the molecule `CC(C)(C)C1CC=C2C(C#N)=C(N)C(C#N)(C#N)C(c3cccs3)C2C1` (stereo not drawn), the AC50 is > 38 µM (inactive). In the case of `CCCCOc1ccc2c(c1)/C(=C(\C(Cl)=C(Cl)Cl)[N+](=O)[O-])N2` it was 14.2 µM; in that of `O=Cc1ccc2ccc3cccnc3c2n1`, 30.2 µM; in that of `CC1CCN(Cc2c(O)ccc3c2O/C(=C\c2ccco2)C3=O)CC1`, 6.87 µM. Regarding `Cn1ncc2c(NNC(=O)c3ccc(Cl)cc3Cl)ncnc21`, the AC50 is 12.7 µM. In the case of `O=C(O)C1Nc2c(Cl)cc(Cl)cc2C2C=CCC12` (stereo not drawn) it was 33.2 µM; in that of `COc1ccc2ccccc2c1CNCc1ccccn1`, > 38 µM (inactive); in that of `Cc1nn2c(N)csc2nc1=O`, 30 µM. For `CC(=Nc1ccc(C)cc1C)c1sc2ccccc2c1O` the value was 37.2 µM; for `O=C(O[C@@H]1OC2COC(=O)c3cc(O)c(O)c(O)c3-c3c(cc(O)c(O)c3O)C(=O)O[C@@H]([C@H]1O)[C@@H]2O)c1cc(O)c(O)c(O)c1`, 5.19 µM; for `COc1ccc(N/C=C/C(=O)c2ccc3c(c2)OCO3)cc1OC`, > 38 µM (inactive). For `COc1ccc(CC(=O)NNC(=O)c2cnccn2)cc1` the value was 15.5 µM; for `O=C(CN1C(=O)/C(=C/c2ccco2)SC1=S)Nc1ccc(C(=O)O)c(O)c1`, 24.5 µM. Take `COc1ccc(/C=C2\SC(=O)NC2=S)cc1OC`: the AC50 was 20 µM. As for `CC1C(=O)NN=C1C(=O)N/N=C\c1ccc(O)cc1O` (stereo not drawn), the AC50 is 10.2 µM. For `COc1cccc(N=Nc2c(N)[nH][nH]c2=O)c1` the value was 10.3 µM. For `CCCCN(C(=O)C1=COCCO1)c1c(N)n(Cc2ccccc2)c(=O)[nH]c1=O` the value was > 38 µM (inactive); for `Cc1ccc(S(=O)(=O)N/N=C/c2ccc(O)c(O)c2)cc1[N+](=O)[O-]`, 27 µM; for `O=C(Cc1c(O)c2ccccc2oc1=O)c1ccc(C(F)(F)F)cc1`, 37.5 µM.

Regarding `CC[n+]1c(/C=C/C=C/c2ccc(N(C)C)cc2)sc2ccccc21`, the AC50 was 18.8 µM. For `CC(=O)Nc1ccc(S(=O)(=O)NCC(=O)NNC(=O)c2csc(N3CCOCC3)n2)cc1` the value was 12.7 µM; for `COCC1CCN(Cc2c(C(=O)N3CCc4ccccc4C3)nc3ccc(Cl)cn23)C1` (stereo not drawn), 21.5 µM. For `CCOC(=O)c1c(-c2ccc(C)o2)csc1NC(=S)NC(=O)c1cccs1` the value was > 38 µM (inactive); for `CCOC(=O)C(C(=O)OCC)c1cc(Br)c2noc3c2c1C(=O)c1ccccc1-3`, less than 0.3 µM. In the case of `CCOC(=O)C1=C(C)N=c2s/c(=C\c3cccn3C)c(=O)n2C1c1cccc(OC)c1OC` (stereo not drawn) it was 13.8 µM; in that of `COc1ccc(C(=O)C/C(=C\C(=O)c2ccc(C)cc2)c2ccccc2)cc1`, > 38 µM (inactive). For `CN(N=Nc1ccc([N+](=O)[O-])cc1)c1ccccc1`, the AC50 was 9.51 µM. With `COC(=O)CCC(=O)OC1(C)C(=O)C2=CN(Cc3ccco3)C(c3ccc(OC)cc3)=CC2=C(Br)C1=O` (stereo not drawn), the AC50 is 21.1 µM.

Turning to `CCN(CC)C(=O)Cn1c(=O)c2ccccc2n2c(=S)sc(-c3cccc(C)c3)c12`, the AC50 is 17.2 µM. On to `O=C(N/N=C/c1cc2c(cc1Cl)OCO2)c1ccccn1`, for which the AC50 is > 38 µM (inactive).

Consider `CCCCOc1ccc(-c2cc(C(F)(F)F)c(C#N)c(SCC(=O)O)n2)cc1`, for which the AC50 is 11.8 µM. For `CCOC(=O)c1c(/N=C/C2C(=O)NC(=S)NC2=O)sc2c1CCC2` the value was 12.8 µM; for `CCn1c(CSc2nnc3ccccn23)nc2cc(C(=O)O)ccc21`, 33.9 µM; for `Cc1ccc(-c2cc(C(=O)O)c3cc(Br)ccc3n2)o1`, > 38 µM (inactive).

For `Cc1cc(C)c2c3c(sc2n1)C(c1ccccc1)C(C#N)=C(N)O3` (stereo not drawn), the AC50 is > 38 µM (inactive).

Consider `O=c1c2ccccc2nc(/C=C/c2ccc([N+](=O)[O-])o2)n1-c1ccc(O)cc1`, for which the AC50 was > 38 µM (inactive). For `COc1cccc(OCC(=O)NNC(=O)c2cnccn2)c1` the value was 0.315 µM; for `Nc1cc2c3c(cccc3c1)C(=O)N(CCN1CCCC1)C2=O`, 16 µM. In the case of `CCCCn1c(O)c(N=Nc2ccccn2)c2ccccc21` it was 24.2 µM. For `O=c1cc[nH]c2c1ccc1c(=O)cc[nH]c12` the value was 25 µM. In the case of `CCOC(=O)c1c(NS(=O)(=O)c2ccccc2)n(CCCOC)c2nc3ccccc3nc12`, the AC50 is > 38 µM (inactive). For `O=c1cc2c(=O)oc3cc(O)c(O)oc3c2c(O)c1O`, the AC50 is 3 µM. For `O=C(CN1C(=O)/C(=C/c2cccc(Br)c2)SC1=S)NC1=NCCS1` the value was > 38 µM (inactive); for `CCOC(=O)/C(C#N)=C\c1ccc(N2CCN(C/C=C/c3ccccc3)CC2)cc1`, 7.9 µM; for `Oc1sc(C=Nc2ccc(F)cc2)c2ccccc12`, 22.2 µM.

For `O=C1c2cccc3c(N4CCCCC4)ccc(c23)C(=O)N1c1ccccc1O`, the AC50 is 28.7 µM. In the case of `COc1ccc(/C=C2\C(=O)NC(=S)N2C(=O)c2ccc(C)cc2)cc1` it was > 38 µM (inactive). Consider `Cc1cc(O)c(-c2cc(O)c(C)cc2O)cc1O`, for which the AC50 is 6.21 µM. In the case of `COc1ccc(NC(=S)NNc2ccc(S(=O)(=O)Nc3ccccc3C(=O)O)cc2[N+](=O)[O-])cc1`, the AC50 is 6.28 µM. As to `O=C1CSC(=S)N1/N=C/c1cc(Br)c(O)c(Br)c1`, the AC50 is > 38 µM (inactive).

As for `CCOC(=O)/C=c1\s/c(=C\c2ccc3cc(OC)ccc3c2)c(=O)n1CC(=O)NCc1ccc2c(c1)OCO2`, the AC50 was > 38 µM (inactive).

On to `O=C(O)CCN1C(=O)/C(=C\c2ccc(-c3nc4ccccc4s3)o2)SC1=S`, for which the AC50 is 3.89 µM.

With `Cc1cccc(-n2c(O)c(/C=N/Nc3nc4c(c(=O)n(C)c(=O)n4C)n3C)c(=O)[nH]c2=S)c1`, the AC50 was 7.45 µM. For `COc1cc(CCC(=O)Nc2ccc(Cl)c(C(F)(F)F)c2)cc(OC)c1OC` the value was > 38 µM (inactive); for `O=c1[nH][nH]c2cc(=O)n(-c3cccc(C(F)(F)F)c3)nc12`, 20.3 µM; for `O=C(N/N=C/c1c(O)n(C2CC2)c(=S)[nH]c1=O)c1ccccc1O`, 27.5 µM. Turning to `O=C1c2cccc3cccc(c23)C(=O)C1(O)O`, the AC50 is 15.6 µM. Regarding `CC1(OC(=O)c2ccc(Cl)nc2)C(=O)C=C2C=C(c3ccc(C#N)cc3)OC=C2C1=O` (stereo not drawn), the AC50 was 20 µM.

As for `CCOC(=O)c1c(-c2ccccc2)oc2ccc(OCC(=O)NNC(=O)CCC(=O)O)cc12`, the AC50 was 15.1 µM. For `N#CC1=C(N)N2C(=C(C#N)C1c1ccccc1)Sc1ccccc12` (stereo not drawn) the value was 5.23 µM; for `CCOc1cc(Br)c(/C=C2/C(=O)N(C)C(=S)N2CC(=O)OC)cc1OC`, > 38 µM (inactive). In the case of `Cc1ccc(C2C(C(=O)c3cccs3)=C(O)C(=O)N2c2nnc(C)s2)cc1` (stereo not drawn) it was 2.43 µM; in that of `COc1ccc(Cn2c(O)c(/C=N/NC(=O)c3ccccc3O)c(=O)[nH]c2=O)cc1`, 6.41 µM.

Consider `Oc1ccc(N=Nc2nccs2)c(O)c1`, for which the AC50 is 38.3 µM. For the molecule `Cc1ccc(C(=O)N/C(=C\c2ccc(-c3ccc([N+](=O)[O-])cc3)o2)C(=O)NC2CCS(=O)(=O)C2)cc1` (stereo not drawn), the AC50 was > 38 µM (inactive). For `Oc1ccc(Br)cc1C=Nc1cccn2cc(-c3ccccc3)nc12` the value was > 38 µM (inactive); for `CCN(CC)c1ccc2cc(S(=O)(=O)c3ccc(C)cc3)c(=O)oc2c1`, 11.5 µM. In the case of `Cc1ccc(C)n1C(Cc1ccccc1)C(=O)O` (stereo not drawn), the AC50 is 8.84 µM. `COc1ccc(N=Nc2nc3ccc(Br)cc3n2C)cc1`: the AC50 is 34.9 µM.

Consider `Cc1ccc(N=Nc2c(O)n(CN3CCOCC3)c3ccccc23)cc1`, for which the AC50 was 11.4 µM.

With `Cc1ccccc1Nc1cc2ccccc2c(=O)[nH]1`, the AC50 is 14.3 µM.

Consider `Nc1c(C(=O)C2CC2)sc2nc(-c3cccs3)cc(C(F)(F)F)c12`, for which the AC50 is > 38 µM (inactive). For `CCOC(=O)c1ccc(N=Nc2c(C)c(C#N)c(O)[nH]c2=O)cc1` the value was 13.3 µM; for `CN1C(=O)/C(=C/c2cn(CC(=O)N3CCCCC3)c3ccccc23)c2ccccc21`, > 38 µM (inactive); for `O=C(N/N=C/c1sc(=O)[nH]c1-[n+]1ccccc1)c1ccccc1[O-]`, 30.2 µM. For `CN1CC=C2C(C#N)=C(N)C(C#N)(C#N)[C@H](c3ccoc3)[C@H]2C1` the value was 32.4 µM; for `CCN1CCc2c(sc(N)c2C(N)=O)C1`, 37.4 µM; for `CCOC(=O)c1ccc(-c2ccc(/C=C(\C#N)C(=O)NCC3CCCO3)o2)cc1` (stereo not drawn), > 38 µM (inactive). For `COc1ncnc2c1N=C1CC(C)(C)CC(N)=C1S2` the value was 19.6 µM; for `O=C(c1nc2ccc(Cl)cn2c1CN1CCCC1)N1CCc2ccccc2C1`, 23.7 µM; for `Brc1ccc(C2=CC(c3cccs3)n3ncnc3N2)cc1` (stereo not drawn), 15.8 µM. Turning to `COc1ccc(Cn2c3ccc(OC)cc3c3nc4ccccc4nc32)cc1`, the AC50 is 22.9 µM.
